Active and inactive are the calls of the source.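 The calls were made as follows: active = EC50 at or below 20 micromolar; inactive = the rest.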

In this test the target is Neurotensin receptor type 1 (Homo sapiens) (UniProt P30989). Kind of test: NTSR1 activation via enzyme-fragment complementation – cell-based, luminescence, CHO-K1 NTSR1 PathHunter, orthogonal assay for NTR1 agonist project, SAR follow-up (AID 602427).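 Also: agonist potency for NTR1 activation where higher luminescence means more arrestin recruitment.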 As to conditions: CHO-K1 NTSR1 PathHunter beta-arrestin.
Neurotensin receptor type 1 (Homo sapiens), sequence (P30989 whole entry, looked up, the tested form may be a part): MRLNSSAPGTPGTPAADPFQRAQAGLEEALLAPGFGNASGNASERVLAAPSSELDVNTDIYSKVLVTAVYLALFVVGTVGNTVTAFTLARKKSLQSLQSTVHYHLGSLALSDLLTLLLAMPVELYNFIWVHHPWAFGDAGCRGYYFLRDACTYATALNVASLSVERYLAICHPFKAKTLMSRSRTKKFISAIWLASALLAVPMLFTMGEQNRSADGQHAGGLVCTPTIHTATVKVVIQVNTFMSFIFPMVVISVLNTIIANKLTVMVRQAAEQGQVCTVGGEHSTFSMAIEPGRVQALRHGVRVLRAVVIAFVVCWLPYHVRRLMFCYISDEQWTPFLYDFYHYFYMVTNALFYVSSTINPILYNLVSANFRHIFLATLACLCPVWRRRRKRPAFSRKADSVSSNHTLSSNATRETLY
The EC50 is the concentration needed to bring the measured effect to its halfway point. With `CCOc1cc2c(N3CCN(c4ccccc4OC)CC3)nc(-c3ccc(OC)c(OC)c3)nc2cc1OC`, the EC50 was > 33 µM (inactive).
In the case of `COc1cc2c3nnc(-c4ccc(Cl)cc4)c-3cn(Cc3ccc(F)cc3)c2cc1OC`, the EC50 is > 33 µM (inactive).
Consider `COc1cc2nc(-c3ccccc3)nc(N3CCN(c4ccc(Cl)cc4)CC3)c2cc1OC`, for which the EC50 was > 33 µM (inactive).
The figure for `Cc1ccc(Cn2cc3c(-c4ccc(F)cc4)nnc-3c3ccccc32)cc1` is > 33 µM (inactive); for `COc1cc2c3nnc(-c4ccc(F)cc4)c-3cn(Cc3cccnc3)c2cc1OC` it is > 33 µM (inactive); for `COc1ccc(/C=N/Nc2nc(-c3ccc(S(=O)(=O)N(C)C)cc3)cs2)cc1` it is > 33 µM (inactive).
Turning to `COc1cc2c3nnc(-c4ccc(F)cc4)c-3cn(Cc3ccc(C)cc3)c2cc1OC`, the EC50 was > 33 µM (inactive).
Then `Fc1ccc(Cn2cc3c(-c4ccc(Cl)cc4)nnc-3c3cc4c(cc32)OCO4)cc1`, with > 33 µM (inactive); and `Cc1ccc(-c2nnc3c4cc5c(cc4n(Cc4ccc(F)cc4)cc2-3)OCO5)cc1`, with > 33 µM (inactive).
As for `COc1ccc(Cn2c(SCc3ccc(C)cc3)nc3cc(OC)c(OC)cc3c2=N)cc1Cl`, the EC50 is > 33 µM (inactive).
Then `COc1cccc(OC)c1-c1cc(C(=O)O)nn1-c1ccnc2cc(Cl)ccc12`, with > 33 µM (inactive); and `CCn1cc2c(-c3ccc(OC)cc3)nnc-2c2ccccc21`, with > 33 µM (inactive); and `COc1ccccc1-c1nc(C(=O)N[C@@H](CC(C)C)C(=O)O)cn1-c1ccnc2cc(Cl)ccc12`, with > 33 µM (inactive).
Then `COc1ccc(Cn2cc3c(-c4ccc(OC)cc4)nnc-3c3ccccc32)cc1`, with > 33 µM (inactive); and `c1ccc(N2CCN(c3ncnc4c3cnn4-c3ccccc3)CC2)cc1`, with > 33 µM (inactive); and `COc1cc2ncnc(N3CCN(c4ccccc4OC)CC3)c2cc1OC`, with > 33 µM (inactive).
Turning to `COc1cc2c3nnc(-c4ccc(F)cc4)c-3cn(Cc3ccc(N(C)C)cc3)c2cc1OC`, the EC50 was > 33 µM (inactive).
The figure for `Clc1ccc(-c2nnc3c4cc5c(cc4n(Cc4ccccc4)cc2-3)OCO5)cc1` is > 33 µM (inactive); for `COc1ccc(C(=O)c2cn(Cc3ccc(F)cc3)c3ccccc3c2=O)cc1` it is > 33 µM (inactive).
Regarding `Cc1ccc(-n2ncc3c(N4CCN(c5cc(C)ccc5C)CC4)ncnc32)c(C)c1`, the EC50 is > 33 µM (inactive).
Then `CN(C)S(=O)(=O)c1ccc(-c2csc(N/N=C/c3cccc(Cl)c3)n2)cc1`, with > 33 µM (inactive).
The figure for `COc1ccc(-c2nnc3c4ccccc4n(Cc4ccc(Cl)cc4)cc2-3)cc1` is > 33 µM (inactive); for `COc1cc2c(=O)c(C(=O)c3ccc(F)cc3)cn(Cc3ccncc3)c2cc1OC` it is > 33 µM (inactive); for `Cc1ccc(Cn2cc3c(-c4ccc(F)cc4)nnc-3c3cc4c(cc32)OCO4)cc1` it is > 33 µM (inactive).
As for `COc1cc2c3nnc(-c4ccc(F)cc4)c-3cn(CC3CC3)c2cc1OC`, the EC50 is > 33 µM (inactive).
As to `COc1cc2nc(-c3ccccc3)nc(N3CCN(c4ccc(F)cc4)CC3)c2cc1OC`, the EC50 was > 33 µM (inactive).
On to `CC(C)C[C@H](NC(=O)c1cn(-c2ccnc3ccccc23)c2c(OCc3ccccc3)cccc12)C(=O)O`, for which the EC50 entry is “inactive”.
The figure for `COc1ccc(N2CCN(c3nc(C4CCC4)nc4cc(OC)c(OC)cc34)CC2)cc1` is > 33 µM (inactive).
Consider `COc1cc2c3nnc(-c4ccc(F)cc4)c-3cn(Cc3ccc(Cl)cc3)c2cc1OC`, for which the EC50 was > 33 µM (inactive).
Regarding `COc1cc2c3nnc(-c4ccc(C)cc4)c-3cn(Cc3ccc(C)cc3)c2cc1OC`, the EC50 is > 33 µM (inactive).
For the compound `COc1ccc(C(=O)c2cn(Cc3ccc(Cl)cc3)c3ccccc3c2=O)cc1`, the EC50 is > 33 µM (inactive).
For `COc1ccc2nc(C3CCC3)nc(N3CCN(c4ccccc4OC)CC3)c2c1`, the EC50 result is “inactive”.
Consider `CCOC(=O)c1cc(-c2c(OC)cccc2OC)n(-c2ccnc3cc(Cl)ccc23)n1`, for which the EC50 was > 33 µM (inactive).
Take `Clc1cccc(-n2ncc3c(N4CCN(c5ccccc5)CC4)ncnc32)c1`: the EC50 is > 33 µM (inactive).
Take `COc1ccc(-c2nnc3c4ccccc4n(Cc4ccc(C)cc4)cc2-3)cc1`: the EC50 was > 33 µM (inactive).
The figure for `COc1cccc(OC)c1-c1cc(C(=O)NC2(C(=O)O)C3CC4CC(C3)CC2C4)nn1-c1ccnc2cc(Cl)ccc12` (stereo not drawn) is > 33 µM (inactive); for `COc1cccc(OC)c1-c1nc(C(=O)O)cn1-c1ccncc1` it is > 33 µM (inactive).
The figure for `COc1cc2c3nnc(-c4ccc(F)cc4)c-3cn(Cc3cccc(C)c3)c2cc1OC` is > 33 µM (inactive).
The figure for `COc1ccc(C(=O)c2cn(Cc3ccc(OC(F)(F)F)cc3)c3ccccc3c2=O)cc1` is > 33 µM (inactive); for `COc1ccc(N2CCN(c3ncnc4c3cnn4-c3ccc(C)cc3C)CC2)cc1` it is > 33 µM (inactive).
With `COc1cc2nc(SCc3ccncc3)n(Cc3cccc(C(F)(F)F)c3)c(=N)c2cc1OC`, the EC50 is > 33 µM (inactive).
Then `COc1ccc2c(c1)c(=O)c(C(=O)c1ccc(F)cc1)cn2Cc1ccc(F)cc1`, with > 33 µM (inactive); and `COc1ccc2c(c1)c1nnc(-c3ccc(F)cc3)c-1cn2Cc1ccc(F)cc1`, with > 33 µM (inactive).
As to `COc1ccc(-c2nnc3c4ccccc4n(CCc4ccccc4)cc2-3)cc1`, the EC50 was > 33 µM (inactive).
Take `COc1ccc(-c2nnc3c4cc(OC)c(OC)cc4n(Cc4ccc(F)cc4)cc2-3)cc1`: the EC50 was > 33 µM (inactive).
For the compound `COc1ccc2c3nnc(-c4ccc(C)cc4)c-3cn(Cc3ccc(C)cc3)c2c1`, the EC50 was > 33 µM (inactive).
For the compound `Cc1ccc(-n2ncc3c(N4CCN(c5ccccc5F)CC4)ncnc32)c(C)c1`, the EC50 was > 33 µM (inactive).
The figure for `COc1cc2c3nnc(-c4ccc(Cl)cc4)c-3cn(Cc3ccccc3)c2cc1OC` is > 33 µM (inactive).

Source of the values: PubChem BioAssay AID602427 (Sanford-Burnham Center for Chemical Genomics, 2012).
